US20040175813A1, “Mutant P53 proteins and uses thereof” (priority 2002, published 2004)

System: MCF-7 c-Jun over-expressing cells
Experiment: Sensitivity of c-Jun over-expressing cells to apoptotic inducing agents, DNA fragmentation
Assay type: cell-based, human
Details: for DNA fragmentation in cells cultured with the agent: FIG. 4A; for Sensitivity of c-Jun over-expressing cells to the apoptotic inducing agent: compared to vector control, FIG. 3
From the text: Human MCF-7 cells were stably transfected with wild type transcription factor c-jun and expressed high levels of c-Jun protein. The c-Jun over-expressing MCF-7 cells were obtained from Drs. Michael Birrer (National Institutes of Health, National Cancer Institute, Rockville, Md.) and Paul Brown (Baylor College of Medicine, Houston, Texas). A description of the c-Jun over-expressing MCF-7 cells can be found in Yang et al. (1997) and Smith et al. (1999).
Bax levels were not altered (FIG. 2A).

Row | Compound | DNA fragmentation in cells cultured with the agent | Sensitivity of c-Jun over-expressing cells to the apoptotic inducing agent
1 | CC1=C(/C=C/C(C)=C/C=C/C(C)=C/C(=O)Nc2ccc(O)cc2)C(C)(C)CCC1 [N-(4-hydroxyphenyl) retinamide (4-HPR), N-(4-hydroxyphenyl) retinamide] | high degree of DNA fragmentation | highly sensitive
2 | Cc1c(C)c2c(c(C)c1OC(=O)CCC(=O)O)CC[C@@](C)(CCC[C@H](C)CCC[C@H](C)CCCC(C)C)O2 [vitamin E succinate (VES), vitamin E succinate] | high degree of DNA fragmentation | highly sensitive
3 | ceramide | high degree of DNA fragmentation | highly sensitive
